One block for each compound: values may come before it. No end group written: not given here.
How the values were obtained:
[1] = biological target: c-Src SH3 domain-GST fusion protein (Gallus gallus, UniProt P00523); assay: Fluorescence polarization direct binding assay, c-Src SH3; design: species or system chicken
Procedure: (§1) Polarization was measured by excitation with vertically polarized light at 485 nm and the fluorescence emission detected at 530 nm in both the vertical and horizontal directions. An average of five measurements were recorded for each well. Samples were equilibrated at room temperature for 25 min before analysis, a time sufficient for the binding reactions to reach equilibrium. The polarization data were fit using Kaleidagraph v3.6 software to Eq. 5, which is derived from first principles without assumptions. […] In this equation, Pobs is the observed polarization value at any given concentration of target protein (GST•SH3 domain). Pmin is the polarization of peptide^Flu at 50 nM in the absence of target protein. Pmax is the maximum polarization of peptide^Flu at saturation with target protein. Kd is the equilibrium dissociation constant. […] Free fits are shown. Kd values were estimated as described.

[2] = biological target: Hck SH3 domain-GST fusion protein (Homo sapiens, UniProt P08631); assay: Fluorescence polarization direct binding assay, Hck SH3
Sequence of Hck SH3 domain-GST fusion protein (P08631 77-137): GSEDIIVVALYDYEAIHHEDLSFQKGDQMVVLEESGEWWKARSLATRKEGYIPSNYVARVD
Procedure: as §1

c-Src SH3^P133L = c-Src SH3^P133L (Gallus gallus, UniProt P00523, P133L); assay: Fluorescence polarization direct binding assay, c-Src SH3^P133L; design: species or system chicken
Procedure: as §1

[3] = biological target: Lck SH3 domain-GST fusion protein (Homo sapiens, UniProt P06239); assay: Fluorescence polarization direct binding assay, Lck SH3
Sequence of Lck SH3 domain-GST fusion protein (P06239 62-128): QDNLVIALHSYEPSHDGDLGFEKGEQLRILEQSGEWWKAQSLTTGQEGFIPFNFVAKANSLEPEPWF
Procedure: (§2) Polarization was measured by excitation with vertically polarized light at 485 nm and the fluorescence emission detected at 530 nm in both the vertical and horizontal directions. An average of five measurements were recorded for each well. Samples were equilibrated at room temperature for 25 min before analysis, a time sufficient for the binding reactions to reach equilibrium. The polarization data were fit using Kaleidagraph v3.6 software to Eq. 5, which is derived from first principles without assumptions. […] In this equation, Pobs is the observed polarization value at any given concentration of target protein (GST•SH3 domain). Pmin is the polarization of peptide^Flu at 50 nM in the absence of target protein. Pmax is the maximum polarization of peptide^Flu at saturation with target protein. Kd is the equilibrium dissociation constant. […] In these cases a lower limit Kd was estimated by setting Pmax equal to the observed polarization at the highest target protein concentration tested, which was often limited by solubility. […] Free fits are shown. Kd values were estimated as described. […] In several cases, the plots of polarization versus [SH3 domain] began to increase at high [SH3 domain] (>50 micromolar), perhaps because of a second binding event. In these cases (indicated by an asterisk (*) in Table 5), data above 50 micromolar target protein was excluded during the curve fits.

[4] = biological target: Lyn SH3 domain-GST fusion protein (Homo sapiens, UniProt P07948); assay: Fluorescence polarization direct binding assay, Lyn SH3
Sequence of Lyn SH3 domain-GST fusion protein (P07948 62-122): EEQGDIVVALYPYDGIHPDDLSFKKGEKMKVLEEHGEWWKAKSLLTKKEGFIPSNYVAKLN
Procedure: as §2

[5] = biological target: Fyn SH3 domain-GST fusion protein (Homo sapiens, UniProt P06241); assay: Fluorescence polarization direct binding assay, Fyn SH3
Sequence of Fyn SH3 domain-GST fusion protein (P06241 81-142): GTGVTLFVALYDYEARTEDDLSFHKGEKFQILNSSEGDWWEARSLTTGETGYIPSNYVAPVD
Procedure: as §2

[6] = Circular dichroism (wavelength- and temperature-dependent) of aPP variants, Example 1; assay type: physicochemical; settings: 30 micromolar; for CD ellipticity at 222 nm: Tris buffer pH 8.0, 25° C.
Procedure: The CD spectra of each peptide (30 micromolar) were acquired in Tris buffer (25 mM Tris base, 50 mM NaCl, (pH 8.0)) at 25° C. in a 2 mm cell. Samples were scanned between 200 and 260 nm, with signal sampling every 0.5 nm, and three successive scans were averaged. Molar residue ellipticity values were calculated from the equation MRE=(Θsample−Θbuffer)/(L×c×n×1000), where Θ is the observed signal in millidegrees, L is the length of the cuvette in cm, c is the concentration of peptide in dmol cm^−3 and n is the number of amino acids in the molecule.
Temperature-dependent CD spectra of aPP^Y7AP13SV14P (30 micromolar) were acquired in Dulbecco's PBS (1 mM KH2PO4, 155 mM NaCl, 3 mM Na2HPO4, (pH 7.4)) in a 2 mm cell. The signal at 222 nm (MRE222) was monitored between 1° C. and 80° C. using the variable temperature module provided with the instrument. Data were collected with a 0.5° C. data pitch, 5 s delay time, 20° C./hour temperature slope, 4 s response, and 1 nm bandwidth. CD spectra were obtained as the temperature was raised and when the temperature was lowered to establish the reversibility of the folding transition. Additionally, a full wavelength scan was obtained before and after the thermal melt; an overlay of the two spectra is shown in FIG. 3A. […] Mean residue ellipticity values for the temperature dependent CD spectrum were calculated from the equation MRE=Θ222 nm/(L×c×n×1000), where Θ is observed signal at 222 nm (mdeg), L is the length of, the cuvette (cm), c is the concentration of peptide (dmol/cm^3) and n is the number of amino acids in the molecule. The first derivatives of the temperature-dependent CD spectra are shown in FIG. 3B, which is a plot of δMRE222/δT (units of deg cm^2 dmol^−1 K^−1). The Tm value reported in the main text corresponds to the temperature at which ∂MRE222/∂T is a maximum.

[7] = Temperature-dependent sedimentation equilibrium of aPP^Y7AP13SV14P, monomer-dimer-tetramer fit; assay type: physicochemical; settings: for % monomer: at 30 micromolar total peptide concentration; for ln KA (m): m fixed to 4 (tetramer), PBS
Procedure: aPP^Y7AP13SV14P samples were prepared in Dulbecco's PBS buffer (as described above) at concentrations of 45, 90, and 180 micromolar. Sedimentation equilibrium experiments were performed as described above and monitored at 280 nm. Samples were centrifuged to equilibrium at three speeds (42,000, 50,000, and 60,000 rpm) at 5, 10, 15, 20, 25, and 30° C. The rotor containing the samples was agitated manually between temperature runs to redistribute the sample along the length of the cell and checked by an initial scan.
The sedimentation data obtained for aPP^Y7AP13SV14P at each temperature was globally fit to Eq. 2 as described above. […] Therefore, the data from within each temperature set was then globally fit to a monomer-n-mer-m-mer model. Based on the self-association trends of the other aPP variants, in which the folded peptides best fit to a monomer-dimer model and the unfolded peptides fit to a monomer-tetramer model, the values for n and m were fixed to 2 and 4 respectively. Data fit with these parameters and the resulting residuals are presented in FIG. 5 and a summary of the fitted parameter results are given in Table 3. […] Samples were prepared in PBS buffer (90 micromolar) and centrifuged to equilibrium at speeds of 42,000 (51), 50,000 (52), and 60,000 (53) rpm.

[8] = Sedimentation equilibrium analytical ultracentrifugation of aPP variants, monomer-n-mer fit (self-association); assay type: physicochemical; settings: for % monomer at 30 μM: 30 μM peptide; for % monomer at 30 μM / lnKA when n = 2 / n (stoichiometry of the self-associated complex): 25° C.; for lnKA when n = 2: monomer-dimer; for n (stoichiometry of the self-associated complex): monomer-n-mer fit; for Kd (self-association, dimer): n = 2, 25° C., calculated from ln KA
Procedure: Analytical ultracentrifugation experiments were performed using peptide solutions prepared in Tris.Cl buffer (25 mM Tris base, 50 mM NaCl, (pH 8.0)) at the appropriate concentrations (5 micromolar to 200 micromolar). Samples were then centrifuged to equilibrium at 25° C. at 42,000, 50,000, and 60,000 rpm. Data were collected with a 0.001 cm step size and successive scans were initiated at 2 h intervals. Samples were judged to have reached equilibrium when the radial concentration gradient remained unchanged over three successive scans using the Match module of Heteroanalysis software v1.1.19. The solvent density (ρ, rho) and partial specific volume ( ν, nu) were calculated using the Sedimentation Interpretation Program “Sednterp” software v1.08.
The data for each peptide (multiple concentrations at three speeds) was first fit globally to an equation describing the sedimentation of an ideal species of molecular weight Mn (Eq. 1) using Heteroanalysis software v1.1.19:
where C represents the concentration of the sedimenting species at distances r and r0 cm from the center of rotation; ν (nu) is the partial specific volume of the sedimenting species in cc/g; ρ (rho) is the density of the supporting buffer in g/cc; ω (omega) is the angular velocity of the rotor (radians/s); Mn is the “molar” molecular weight of sedimenting species (g/mol); R is the universal gas constant (8.315×10^7 ergs K^−1 mol^−1) and T is the temperature in degrees Kelvin.
In order to quantify this self-association, the data for each peptide was next fit globally to a monomer-n-mer equilibrium model using Eq. 2:
where n is the stoichiometry of the self-associated complex. Errors were calculated for n and lnKA using f-statistics to two standard deviations.
Samples were prepared in PBS buffer and centrifuged at speeds of 42,000 (41), 50,000 (42), or 60,000 RPM (43) at 25° C. Experimental data are shown as points; lines indicate the best fit to a monomer-n-mer model described by Eq. 2.

[9] = pH- and temperature-dependent; read-out: equilibrium dissociation constant (Kd) of the aPP dimer; cited from earlier work

Compound: CC(C)C[C@H](NC(=O)[C@@H]1CCCN1C(=O)[C@@H]1CCCN1C(=O)[C@H](C)NC(=O)CNC(=O)CNC(=O)[C@@H](N)CSCC(=O)Nc1ccc2c(c1)C(=O)OC21c2ccc(O)cc2Oc2cc(O)ccc21)C(=O)N1CCC[C@H]1C(=O)N1CCC[C@H]1C(=O)N[C@@H](CCCNC(=N)N)C(=O)N[C@@H](CC(N)=O)C(=O)N[C@@H](CCCNC(=N)N)C(=O)N1CCC[C@H]1C(=O)N[C@@H](CCCNC(=N)N)C(N)=O [^Flu1]
Kd [1]: 1500 ± 100 nM
Kd [2]: 1600 ± 200 nM
Kd (c-Src SH3^P133L): > 100000 nM
Kd [3]: > 20000 nM
Kd [4]: 2000 ± 300 nM
Kd [5]: 1400 ± 200 nM

CD ellipticity at 222 nm [6]: -9700 deg cm^2 dmol^−1
Tm (cooperative unfolding transition) ([6]; temperature-dependent CD at 222 nm): 20 °C
n (monomer-n-mer fit, Eq. 2) ([7]; 5° C.): 2.5
% monomer ([7]; 5° C.): 74%
ln KA (m) ([7]; 5° C.): 25.7 (25.3, 26.0)
% monomer ([7]; 10° C.): 82%
ln KA (m) ([7]; 10° C.): 25.3 (25.0, 25.5)
% monomer ([7]; 15° C.): 84%
ln KA (m) ([7]; 15° C.): 25.6 (25.4, 25.8)
% monomer ([7]; 20° C.): 90%
ln KA (m) ([7]; 20° C.): 25.0 (24.8, 25.2)
KD (tetramer, monomer/dimer/tetramer model) ([7]; 25° C.): 6.8×10^−12 M^3
% dimer ([7]; 25° C., at 30 micromolar): 9%
% tetramer ([7]; 25° C., at 30 micromolar): 1%
% monomer ([7]; 25° C.): 90%
ln KA (m) ([7]; 25° C.): 25.7 (25.4, 26.0)
n (monomer-n-mer fit, Eq. 2) ([7]; 30° C.): 3.6
% monomer ([7]; 30° C.): 98%
ln KA (m) ([7]; 30° C.): 24.4 (24.2, 24.5)
Compound: GPSQPTAPGDDASPEDLIRFYDNLQQYLNVVTRHRY [aPP^Y7AP13SV14P]

CD ellipticity at 222 nm [6]: -14700 deg cm^2 dmol^−1
% monomer at 30 μM [8]: 14%
lnKA when n = 2 [8]: when n = 2 13.57
n (stoichiometry of the self-associated complex) [8]: 1.86
Kd (self-association, dimer) [8]: 1300 nM
Compound: GPSQPTYPGDDAPVEDLIRFADNLQQYLNVVTRHRY [aPP^Y21A]

Kd (self-association, dimer) [8]: 4100 nM
Compound: avian pancreatic polypeptide (GPSQPTYPGDDAPVEDLIRFYDNLQQYLNVVTRHRY; ends and bridges not checked) [aPP, purchased from American Peptide Company, reference compound]
% monomer at 30 μM [8]: 23%
% in the dimer state at 30 micromolar ([8]; 30 micromolar): > 94%
lnKA when n = 2 [8]: when n = 2 12.41
n (stoichiometry of the self-associated complex) [8]: 1.92
Kd [9]: 0.4 to 5000 nM

From patent US20100273722A1, “MODIFIED MINIATURE PROTEINS” (Yale University, priority 2007, published 2010)
